According to patent publication US8846694B2, “Pyrrolidone derivatives for use as MetAP-2 inhibitors” (Merck Patent GmbH, priority 2008, dated 2014):
Where a name gives a salt, the structure may show the parent alone.

These molecules were tested against MetAP-2 (Homo sapiens, UniProt P50579) (assay: MetAP-2 activity measurement (coupled enzymatic reactions, substrate Met-Arg-Ser, photometric at 450 nm)). Conditions: read-out: IC50 enzyme (Inhibition of MetAP-2).
Format: biochemical
Method: MetAP-2 Activity Measurement
The MetAP-2 activity is determined by coupling enzymatic reactions. The tripeptide Met-Arg-Ser (MAS) is employed as substrate. The methionine liberated is firstly converted into Metox and H2O2 by L-aminooxidase (AAO). In the second step, the peroxidase (POD) with the aid of the H2O2 catalyses the oxidation of the leukodye dianisidine to dianisidineox, the increase of which is detected photometrically at 450 nm.
MetAP-2 activity can be recorded continuously as kinetics. The reaction scheme illustrates that one mol of dianisidineox is formed per mol of methionene. The MetAP-2 enzyme activity can therefore be calculated directly as Δ absorption per time unit. […] of the MetAP-2 activity (mol of Met/time unit) is possible with the aid of the dianisidineox extinction coefficient.
The change in extinction per time unit is depicted graphically and a slope calculation is carried out in the visually linear region of the reaction.

MetAP-2, sequence (P50579 whole entry, species assumed): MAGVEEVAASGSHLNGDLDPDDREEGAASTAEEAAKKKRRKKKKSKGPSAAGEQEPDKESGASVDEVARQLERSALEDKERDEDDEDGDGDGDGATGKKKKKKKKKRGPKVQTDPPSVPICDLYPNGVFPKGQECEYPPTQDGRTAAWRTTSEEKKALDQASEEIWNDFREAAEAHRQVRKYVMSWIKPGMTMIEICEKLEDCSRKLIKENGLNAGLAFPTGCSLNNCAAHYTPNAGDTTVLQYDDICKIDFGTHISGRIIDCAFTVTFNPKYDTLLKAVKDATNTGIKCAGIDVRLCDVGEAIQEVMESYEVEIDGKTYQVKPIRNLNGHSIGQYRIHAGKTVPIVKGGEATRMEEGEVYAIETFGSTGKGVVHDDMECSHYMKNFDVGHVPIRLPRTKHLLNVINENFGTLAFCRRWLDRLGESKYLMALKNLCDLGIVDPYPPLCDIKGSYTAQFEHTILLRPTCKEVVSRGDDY

| SMILES | IC50 |
| --- | --- |
| CCNC(=O)c1cc(OC[C@H]2CCCN2c2ncnc3[nH]cnc23)c2ccccc2n1 [A50, N-Ethyl-4-[(R)-1-(9H-purin-6-yl)pyrrolidin-2-yl-methoxy]quinoline-2-carboxamide formate] | 10 to 1000 nM |
| O=C1CCCc2c(OC[C@H]3CCCN3c3ncnc4[nH]cnc34)cccc21 [A51] | 10 to 1000 nM |
| O=C(O)/C=C1/CCc2c(OC[C@H]3CCCN3c3ncnc4[nH]cnc34)cccc2C1=O [A53, [1-Oxo-5-[(R)-1-(9H-purin-6-yl)pyrrolidin-2-yl-methoxy]-3,4-dihydro-1H-naphthalen-(2Z)-ylidene]acetic acid] | 10 to 1000 nM |
| c1cc2c(c(OC[C@H]3CCCN3c3ncnc4[nH]cnc34)c1)CCCC2 [A55, 6-[(R)-2-(5,6,7,8-Tetrahydronaphthalen-1-yl-oxymethyl)pyrrolidin-1-yl]-9H-purine] | 10 to 1000 nM |
| c1cc(OC[C@H]2CCCN2c2ncnc3[nH]cnc23)c2nccc(CN3CCOCC3)c2c1 [A56, 4-Morpholin-4-ylmethyl-8-[(R)-1-(9H-purin-6-yl)-pyrrolidin-2-ylmethoxy]quinoline] | 1000 to 10000 nM |
| Clc1ncc(OC[C@H]2CCCN2c2ncnc3[nH]cnc23)c2ccccc12 [A57, 1 -Chloro-4-[(R)-1-(9H-purin-6-yl)pyrrolidin-2-yl-methoxy]isoquinoline] | 10 to 1000 nM |
| COCCOc1cccc2c(OC[C@H]3CCCN3c3ncnc4[nH]cnc34)cccc12 [A58, 6-{(R)-2-[5-(2-Methoxyethoxy)naphthalen-1-yl-oxymethyl]pyrrolidin-1-yl}-9H-purine] | 10 to 1000 nM |
| O=c1c2ccccc2ccn1C[C@H]1CCCN1c1ncnc2[nH]cnc12 [A59, 2-[(R)-1-(9H-Purin-6-yl)pyrrolidin-2-ylmethyl]-2H-isoquinolin-1-one] | > 10000 nM |
| c1ccc2c(OC[C@H]3CCCN3c3ncnc4[nH]cnc34)ccc(CNCCN3CCOCC3)c2c1 [A60, (2-Morpholin-4-ylethyl)-{4-[(R)-1-(9H-purin-6-yl)-pyrrolidin-2-ylmethoxy]naphthalen-1-yl-methyl}amine] | 10 to 1000 nM |
| c1ccc2c(OC[C@H]3CCCN3c3ncnc4[nH]cnc34)c(CN3CCCCC3)ccc2c1 [A61, 6-[(R)-2-(2-Piperidin-1-ylmethylnaphthalen-1-yloxymethyl)pyrroiidin-1-yl]-9H-purine] | > 10000 nM |
| c1ccc(-c2ccccc2OC[C@H]2CCCN2c2ncnc3[nH]cnc23)cc1 [A62, 6-[(R)-2-(Biphenyl-2-yloxymethyl)pyrrolidin-1-yl]-9H-purine] | 1000 to 10000 nM |
| c1ccc(-c2cccc(OC[C@H]3CCCN3c3ncnc4[nH]cnc34)c2)cc1 [A63, 6-[(R)-2-(Biphenyl-3-yloxymethyl)pyrrolidin-1-yl]-9H-purine] | 1000 to 10000 nM |
| c1ccc(-c2ccc(OC[C@H]3CCCN3c3ncnc4[nH]cnc34)cc2)cc1 [A64, 6-[(R)-2-(Biphenyl-4-yloxymethyl)pyrrolidin-1-yl]-9H-purine] | > 10000 nM |
| COC(=O)c1cccc(-c2ncc(OC[C@H]3CCCN3c3ncnc4[nH]cnc34)cn2)c1 [A65, Methyl 3-{5-[(R)-1-(9H-purin-6-yl)pyrrolidin-2-yl-methoxy]pyrimidin-2-yl}benzoate] | 10 to 1000 nM |
| O=C(NCCN1CCOCC1)c1cccc(-c2ncc(OC[C@H]3CCCN3c3ncnc4[nH]cnc34)cn2)c1 [A66, N-(2-Morpholin-4-ylethyl)-3-{5-[(R)-1-(9H-purin-6-yl)pyrrolidin-2-ylmethoxy]pyrimidin-2-yl}-benzamide] | 10 to 1000 nM |
| CNC(=O)/C=C1/CCc2c(OC[C@H]3CCCN3c3ncnc4[nH]cnc34)cccc2C1=O [A67, N-Methyl-2-[1-oxo-5-[(R)-1-(9H-purin-6-yl)-pyrrolidin-2-ylmethoxy]-3,4-dihydro-1H-naphthalen-(2Z)-ylidene]acetamide] | 10 to 1000 nM |
| CC(O)CNC(=O)c1cc(OC[C@H]2CCCN2c2ncnc3[nH]cnc23)c2ccccc2n1 (stereo partly drawn) [A68, N-(2-Hydroxypropyl)-4-[(R)-1-(9H-purin-6-yl)-pyrrolidin-2-ylmethoxy]quinoline-2-carboxamide hydrochloride] | 10 to 1000 nM |
| O=C(NC1CCCC1)c1cc(OC[C@H]2CCCN2c2ncnc3[nH]cnc23)c2ccccc2n1 [A69, N-Cyclopentyl-4-[(R)-1-(9H-purin-6-yl)-pyrrolidin-2-ylmethoxy]quinoline-2-carboxamide] | 1000 to 10000 nM |
| CCCCNC(=O)c1cc(OC[C@H]2CCCN2c2ncnc3[nH]cnc23)c2ccccc2n1 [A70, N-Butyl-4-[(R)-1-(9H-purin-6-yl)pyrrolidin-2-yl-methoxy]quinoline-2-carboxamide] | 10 to 1000 nM |
| CCCNC(=O)c1cc(OC[C@H]2CCCN2c2ncnc3[nH]cnc23)c2ccccc2n1 [A71, N-Propyl-4-[(R)-1-(9H-purin-6-yl)pyrrolidin-2-yl-methoxy]quinoline-2-carboxamide] | 10 to 1000 nM |

| SMILES | IC50 |
| --- | --- |
| CC1(C)Cc2cccc(OC[C@H]3CCCN3c3ncnc4[nH]cnc34)c2O1 [A72, 6-[(R)-2-(2,2-Dimethyl-2,3-dihydrobenzofuran-7-yloxymethyl)pyrro!idin-1-yl]-9H-purine] | 1000 to 10000 nM |
| c1cc(OC[C@H]2CCCN2c2ncnc3[nH]cnc23)c2ncoc2c1 [A73, 6-[(R)-2-(Benzoxazol-4-yloxymethyl)pyrrolidin-1-yl]-9H-purine] | 1000 to 10000 nM |
| CCOC(=O)/C=C/c1ccccc1OC[C@H]1CCCN1c1ncnc2[nH]cnc12 [A74, Ethyl (E)-3-{2-[(R)-1-(9H-purin-6-yl)pyrrolidin-2-ylmethoxy]phenyl}acrylate] | 10 to 1000 nM |
| Cc1cc2c(OC[C@H]3CCCN3c3ncnc4[nH]cnc34)cccc2n1C(=O)C(F)(F)F [A75, 2,2,2-Trifluoro-1-{2-methyl-4-[(R)-1-(9H-purin-6-yl)pyrrolidin-2-ylmethoxy]indol-1-yl}ethanone] | 1000 to 10000 nM |
| O=C(O)/C=C/c1ccccc1OC[C@H]1CCCN1c1ncnc2[nH]cnc12 [A76, (E)-3-{2-[(R)-1-(9H-Purin-6-yl)pyrrolidin-2-yl-methoxy]phenyl}acrylic acid] | > 10000 nM |
| Fc1ccc(-c2ncc(OC[C@H]3CCCN3c3ncnc4[nH]cnc34)cn2)cc1 [A77, 6-{(R)-2-[2-(4-Fluorophenyl)pyrimidin-5-yl-oxymethyl]pyrrolidin-1-yl}-9H-purine] | 1000 to 10000 nM |
| CNC(=O)/C=C/c1ccccc1OC[C@H]1CCCN1c1ncnc2[nH]cnc12 [A78, (E)-N-Methyl-3-{2-[(R)-1-(9H-purin-6-yl)-pyrrolidin-2-ylmethoxy]phenyl}acrylamide] | 1000 to 10000 nM |
| O=C(/C=C/c1ccccc1OC[C@H]1CCCN1c1ncnc2[nH]cnc12)NCCCO [A79, (E)-N-(3-Hydroxypropyl)-3-{2-[(R)-1-(9H-purin-6-yl)pyrrolidin-2-ylmethoxy]phenyl}acrylamide] | 10 to 1000 nM |
| O=C(NC1CCC1)c1cc(OC[C@H]2CCCN2c2ncnc3[nH]cnc23)c2ccccc2n1 [A80, N-Cyclobutyl-4-[(R)-1-(9H-purin-6-yl)pyrrolidin-2-ylmethoxy]quinoline-2-carboxamide] | 10 to 1000 nM |
| CCCCCNC(=O)c1cc(OC[C@H]2CCCN2c2ncnc3[nH]cnc23)c2ccccc2n1 [A81, N-Pentyl-4-[(R)-1-(9H-purin-6-yl)pyrrolidin-2-yl-methoxy]quinoline-2-carboxamide] | 10 to 1000 nM |
| Cn1ncc(Cl)c1/C=C1/CCc2c(OC[C@H]3CCCN3c3ncnc4[nH]cnc34)cccc2C1=O [A82, 2-[1-(4-Chloro-2-methyl-2H-pyrazol-3-yl)meth-(Z)-ylidene]-5-[(R)-1-(9H-purin-6-yl)pyrrolidin-2-ylmethoxy]-3,4-dihydro-2H-naphthalen-1-one] | 10 to 1000 nM |
| O=C1/C(=C\c2cc[nH]n2)CCc2c(OC[C@H]3CCCN3c3ncnc4[nH]cnc34)cccc21 [A83, 5-[(R)-1-(9H-Purin-6-yl)pyrrolidin-2-ylmethoxy]-2-[1-(1H-pyrazol-3-yl)meth-(Z)-yildene]-3,4-dihydro-2H-naphthaien-1-one] | 10 to 1000 nM |
| O=C(NCCO)c1cc(OC[C@H]2CCCN2c2ncnc3[nH]cnc23)c2ccccc2n1 [A84, N-(2-Hydroxyethyl)-4-[(R)-1-(9H-purin-6-yl)-pyrrolidin-2-ylmethoxy]quinoline-2-carboxamide] | 10 to 1000 nM |
| O=C(NCCCO)c1cc(OC[C@H]2CCCN2c2ncnc3[nH]cnc23)c2ccccc2n1 [A85, N-(3-Hydroxypropyl)-4-[(R)-1-(9H-purin-6-yl)-pyrrolidin-2-ylmethoxy]quinoline-2-carboxamide] | 10 to 1000 nM |
| c1cc(OC[C@H]2CCCN2c2ncnc3[nH]cnc23)c2cccnc2c1 [A86, 5-[(R)-1-(9H-Purin-6-yl)pyrrolidin-2-yl-methoxy]quinoline] | 10 to 1000 nM |
| c1cc(OC[C@H]2CCCN2c2ncnc3[nH]cnc23)c2cnccc2c1 [A87, 8-[(R)-1-(9H-Purin-6-yl)pyrrolidin-2-yl-methoxy]isoquinoline] | 10 to 1000 nM |
| O=C(NCC1CC(O)C1)c1cc(OC[C@H]2CCCN2c2ncnc3[nH]cnc23)c2ccccc2n1 (stereo partly drawn) [A88, N-(3-Hydroxycyclobutylmethyl)-4-[(R)-1-(9H-purin-6-yl)pyrrolidin-2-ylmethoxy]quinoline-2-carboxamide] | 10 to 1000 nM |
| Cc1cc2c(OC[C@H]3CCCN3c3ncnc4[nH]cnc34)cccc2cn1 [A89, 3-Methyl-5-[(R)-1-(9H-purin-6-yl)pyrrolidin-2-yl-methoxy]isoquinoline] | 10 to 1000 nM |
| CC(=O)N(CCN1CCOCC1)Cc1ccc(OC[C@H]2CCCN2c2ncnc3[nH]cnc23)c2ccccc12 [A92, N-(2-Morpholin-4-ylethyl)-N-{4-[(R)-1-(9H-purin-6-yl)pyrrolidin-2-ylmethoxy]naphthalen-1-yl-methyl}acetamide] | 10 to 1000 nM |
| c1ccc2c(OC[C@H]3CCCN3c3ncnc4[nH]cnc34)ccnc2c1 [A93, 4-[(R)-1-(9H-Purin-6-yl)pyrrolidin-2-yl-methoxy]quinoline] | 10 to 1000 nM |
